“Also recorded” adds a separate entry of the source.
Key:
MDA-MB-231 = assay: Cell viability assay (CCK-8), MDA-MB-231; type: cell-based, human; settings: for inhibition at 5 µg/mL: MDA-MB-231; for IC50: TNBC cell line, CCK-8, 72 h, 0.156 to 40 μM
Protocol: (§1) Four human TNBC cell lines (MDA-MB-231, MDA-MB-453, SUM-159, and BT-20), a non-TNBC breast cancer cell line (MCF-7) and a normal mammary epithelial cell line (MCF-10A) were cultured with DMEM (phenol free) supplemented with 2.5% CS-FBS and 1% L-Glu. 1.2 × 10^3 of cells were seeded into 384-well microplates and maintained for 24 h in an incubator at 37 °C in a 5% CO2, saturated humidified atmosphere. […] […] Then CCK-8 solution was added into cells and incubated for another 4 h. Absorbance was measured with a Microplate Reader at 450/600 nm. The IC50 values of the compounds on TNBC cell lines were derived using GraphPad Prism 5.0 (GraphPad Software, Inc., La Jolla, CA, USA).

SUM-159 = assay: Cell viability assay (CCK-8), SUM-159; type: cell-based, human; settings: for inhibition at 5 µg/mL: SUM159; for IC50: TNBC cell line, CCK-8, 72 h, 0.156 to 40 μM
Protocol: as §1

MCF-7 = assay: Cell viability assay (CCK-8), MCF-7; type: cell-based, human; settings: for inhibition at 5 µg/mL / IC50: Homo sapiens; for inhibition at 5 µg/mL: MCF7; for IC50: MCF7, 72 h, non-TNBC breast cancer cell line, CCK-8, 72 h
Protocol: as §1

MCF-10A = assay: Cell viability assay (CCK-8), MCF-10A; type: cell-based, human; settings: for IC50: Homo sapiens, MCF-10A, normal mammary epithelial cell line, CCK-8, 72 h
Protocol: (§2) Four human TNBC cell lines (MDA-MB-231, MDA-MB-453, SUM-159, and BT-20), a non-TNBC breast cancer cell line (MCF-7) and a normal mammary epithelial cell line (MCF-10A) were cultured with DMEM (phenol free) supplemented with 2.5% CS-FBS and 1% L-Glu. 1.2 × 10^3 of cells were seeded into 384-well microplates and maintained for 24 h in an incubator at 37 °C in a 5% CO2, saturated humidified atmosphere. Different compounds were added into cells with 9 concentrations from 0.156 to 40 μM for 72 h. […] Then CCK-8 solution was added into cells and incubated for another 4 h. Absorbance was measured with a Microplate Reader at 450/600 nm. The IC50 values of the compounds on TNBC cell lines were derived using GraphPad Prism 5.0 (GraphPad Software, Inc., La Jolla, CA, USA).

MDA-MB-436 = assay: Cell viability assay, MDA-MB-436; type: cell-based; settings: Homo sapiens, TNBC cell line
Protocol: In addition to three TNBC cell lines (MDA-MB-231, MDA-MB-436, and SUM-159) and the breast cancer cell line MCF-7, we employed the normal mammary epithelial cell line MCF-10A, which was used for testing the compounds for their effects on normal breast cells (Table 6).
as §2

MDA-MB-453 = assay: Cell viability assay (CCK-8), MDA-MB-453; type: cell-based; settings: Homo sapiens, TNBC cell line, CCK-8, 72 h, 0.156 to 40 μM
Protocol: as §2

BT-20 = assay: Cell viability assay (CCK-8), BT-20; type: cell-based; settings: Homo sapiens, TNBC cell line, CCK-8, 72 h, 0.156 to 40 μM
Protocol: as §2

TNBC cell lines = assay: Cell viability assay, different TNBC cell lines; type: cell-based, human; settings: for IC50: Homo sapiens
Protocol: as §2

[1] = test system: signal transducer and activator of transcription 3 (STAT3); parameters: method as in ref 21, 22 = [21]; 21. Tweardy D.J. Huang X. Kasembeli M.M. Stat3 Inhibitors W.O. Patent 2009149192 A1 10 12 2009 || [22]; 22. Tweardy D.J. Kasembeli M.M. Xu M.X. Eckols T.K. Methods and Compositions for Treatment of Muscle Wasting, Muscle Weakness, and/or Cachexia Using Inhibitors of Stat3 W.O. Patent 2015010107 A1 22 1; settings: antitumor agent; cited from earlier work
[2] = test system: heme detoxification protein (HDP); parameters: method as in ref 20 = [20]; 20. Rathore D. Jani D. Nagarkatti R. HDP (Heme Detoxification Protein) Involved in Hemozoin Formation in Plasmodium and Theileria as an Anti-protozoal Target, and High-throughput Screening for Antimal; settings: cited from earlier work

SMILES | IC50 (MDA-MB-231; Homo sapiens, MDA-MB-231, 72 h) [µM] | IC50 (MDA-MB-436) [µM] | IC50 (MDA-MB-453) [µM] | IC50 (BT-20) [µM] | IC50 (MCF-7) [µM] | IC50 (MDA-MB-231) [µM] | inhibition at 5 µg/mL (MDA-MB-231; Homo sapiens) [%] | inhibition at 5 µg/mL (SUM-159; Homo sapiens) [%] | IC50 (SUM-159; Homo sapiens, SUM159, 72 h) [µM] | inhibition at 5 µg/mL (MCF-7) [%] | IC50 (MCF-10A) [µM] | inhibitory effect on MCF-7 (in words) (MCF-7) | inhibitory effect on MCF-10A (in words) (MCF-10A) | IC50 (TNBC cell lines) [µM] | IC50 (SUM-159) [µM] | fold reduced inhibitory activity compared to the ester compound (2-5) (TNBC cell lines; both TNBC cell lines (MDA-MB-231, SUM-159)) | inhibition of STAT3 (in words) [1] | antimalarial HDP inhibitor (in words) [2]
CCCCOC(=O)c1c(C)oc2c1cc(NS(=O)(=O)c1ccc(OC)cc1)c1ccccc12 [Compound 3-3] | 3.25 | 3.36 |  |  |  |  | 51.1 | 42.1 | 8.66 | 29.7 | > 40 |  |  |  |  |  |  | 
CCOC(=O)c1c(C)oc2c1cc(NS(=O)(=O)c1ccc(OC)cc1)c1ccccc12 [Compound 2-8] | 2.96 | 2.8 | 3.09 | 10.1 | > 40 |  | 62.9 | 61.8 | 2.5 |  | > 40 | no inhibitory effect; also recorded: no inhibitory activity | no inhibitory activity | 2 to 3 |  |  |  | 
COc1ccc(S(=O)(=O)Nc2cc3c(C(=O)O)c(C)oc3c3ccccc23)cc1 [Compound 2-5-COOH] | > 20 |  |  |  |  | ~24 |  |  | > 20 |  |  |  |  |  | 24.2 | approximately 10 fold |  | 
COC(=O)c1c(C)oc2c1cc(NS(=O)(=O)c1ccc(OC)cc1)c1ccccc12 [Compound 2-5] | 3.12 | 1.99 | 2.95 | > 40 | > 40 |  | 31 | 56.8 | 2.91 |  | > 40 | no inhibitory effect; also recorded: no inhibitory activity | no inhibitory activity | 2 to 3 |  |  |  | 
COc1ccc(S(=O)(=O)Nc2cc(Cl)c(O)c3ccccc23)cc1 [Compound 2-9] | 6.22 |  | 4.61 | > 40 | > 40 |  |  |  | 18.1 |  |  |  |  |  |  |  | inhibition | 
CCOc1ccc(S(=O)(=O)Nc2cc(Cl)c(O)c3ccccc23)cc1 [Compound 2-11] | 6.92 |  | 5.72 | > 40 | > 40 |  |  |  | > 40 |  |  |  |  |  |  |  |  | inhibitor

Now from value to compound, other results behind:

IC50 (MDA-MB-231; Homo sapiens, MDA-MB-231, 72 h) [µM] | IC50 (MDA-MB-436) [µM] | IC50 (MDA-MB-453) [µM] | IC50 (BT-20) [µM] | IC50 (MCF-7) [µM] | IC50 (MDA-MB-231) [µM] | SMILES | inhibition at 5 µg/mL (MDA-MB-231; Homo sapiens) [%] | inhibition at 5 µg/mL (SUM-159; Homo sapiens) [%] | IC50 (SUM-159; Homo sapiens, SUM159, 72 h) [µM] | inhibition at 5 µg/mL (MCF-7) [%] | IC50 (MCF-10A) [µM] | inhibitory effect on MCF-7 (in words) (MCF-7) | inhibitory effect on MCF-10A (in words) (MCF-10A) | IC50 (TNBC cell lines) [µM] | IC50 (SUM-159) [µM] | fold reduced inhibitory activity compared to the ester compound (2-5) (TNBC cell lines; both TNBC cell lines (MDA-MB-231, SUM-159)) | inhibition of STAT3 (in words) [1] | antimalarial HDP inhibitor (in words) [2]
5.49 | 1.41 |  |  |  |  | CCOC(=O)c1c(C)oc2c1cc(NS(=O)(=O)c1ccc(OCC)cc1)c1ccccc12 [Compound 3-37] | 59.7 | 66.8 | 4.09 | 42.5 | > 40 |  |  |  |  |  |  | 
11.9 | 7.13 |  |  |  |  | COC(=O)c1c(C(C)(C)C)oc2c1cc(NS(=O)(=O)c1ccc(OC)cc1)c1ccccc12 [Compound 3-12] | 71.4 | 90.4 | 11.5 | 76.3 | > 40 |  |  |  |  |  |  | 
1.77 | ~0.01 |  |  |  |  | CCOc1ccc(S(=O)(=O)Nc2cc3c(C(C)=O)c(C)oc3c3ccccc23)cc1 [Compound 3-17] | 68.6 | 61 | 1.94 | 40.5 | 0.66 |  |  |  |  |  |  | 
2.68 | 2.08 |  |  |  |  | CCOc1ccc(S(=O)(=O)Nc2cc3c(C(=O)OC)c(C)oc3c3ccccc23)cc1 [Compound 3-9] | 63 | 60.8 | 2.66 | 24.3 | > 40 |  |  |  |  |  |  | 

Reference: PMC6017705, “Discovery of N-(Naphtho[1,2-b]Furan-5-Yl) Benzenesulfonamides as Novel Selective Inhibitors of Triple-Negative Breast Cancer (TNBC)” (Molecules : A Journal of Synthetic Chemistry and Natural …, 2018)
